In brackets after ≈: the same amount, converted by molar mass. Where two headings read alike, the source gives them in different places. Where a SMILES comes first, the peptide text is derived from it. Bridges are numbered along the chain shown (N, C = ends). [ ]: non-standard residue; d: D form. The star is where a group is joined. Phe(3,5-F2) = N[C@@H](Cc1cc(F)cc(F)c1)C(=O)O; Heptenoyl(2E) = CCCC/C=C/C(=O)*; aThr = C[C@H](O)[C@H](N)C(=O)O; Pip = O=C(O)[C@@H]1CCCCN1
How the values were obtained:
Sa-ClpP = target: T1, Sa-ClpP (Staphylococcus aureus, UniProt Q2G036); test: ClpP activation, EnzCheck Protease Assay with Bodipy-FL casein (second described method); type: biochemical, S. aureus
T1 construct: made in house; host or cells: E. coli BL21 (DE3)
T1 sequence (Q2G036 whole entry): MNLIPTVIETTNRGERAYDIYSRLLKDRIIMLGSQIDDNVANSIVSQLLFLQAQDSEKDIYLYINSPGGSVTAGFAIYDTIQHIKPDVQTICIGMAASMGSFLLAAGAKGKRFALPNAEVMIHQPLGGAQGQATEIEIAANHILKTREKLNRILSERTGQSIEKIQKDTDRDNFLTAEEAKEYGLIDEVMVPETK
Outline: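 Sa-ClpP (2 μM in master mix) with Bodipy-FL casein (2 μM in master mix) in Tris-HCl pH 8.0, 0.01% Triton X-100, compounds in 2% DMSO, triplicate. Fluorescence (ex 485/em 520 nm) followed 30 min; degradation slopes normalized to ADEP4 and DMSO controls, EC50 and % activation by four-parameter fit.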

[1] = Cytotoxicity assay, CellTiter-Glo cell viability; type: cell-based; conditions: African green monkey
Outline: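 Vero cells seeded overnight at 37 °C in DMEM with 10% FBS, then exposed to serial dilutions of compound for 72 h. Viability read by CellTiter-Glo luminescence; IC50 from duplicates, given as the range of two independent experiments.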

S. pyogenes ATCC 700294 = test: Minimal inhibitory concentration, microbroth dilution; type: cell-based; conditions: Streptococcus pyogenes, ATCC700294, read-out: Minimal Inhibitory Concentration S. pyogenes ATCC 700294
Outline: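 Twofold serial dilutions in broth per CLSI M7-A7 microbroth dilution, incubated aerobically overnight at 37° C. MIC read visually as lowest concentration preventing bacterial growth.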

B. subtilis ATCC 23857 = test: as above; type: cell-based; conditions: Bacillus subtilis, ATCC23857, read-out: Minimal Inhibitory Concentration B. subtilis ATCC 23857
Outline: (§1)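 Compound was diluted twofold in the appropriate broth. Bacterial suspension (approx. 10^5 cfu/mL) was then added in equal volume, giving a maximum test concentration of 200 μM. After aerobic overnight incubation at 37 °C, wells were inspected visually for growth.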

S. aureus ATCC 29213 = test: as above; type: cell-based; conditions: Staphylococcus aureus, ATCC29213, read-out: Minimal Inhibitory Concentration S. aureus ATCC 29213
Outline: as §1

[2] = read-out: ClpP Activation EC50 (converted)
[3] = Vero cells, 72 hours, read-out: Cytotoxicity IC50

With `C[C@@H]1C[C@H]2C(=O)OC[C@H](NC(=O)[C@H](Cc3ccccc3)NC(=O)Nc3ccc(N(C)C)cc3)C(=O)N3CCC[C@H]3C(=O)N3CCCC[C@H]3C(=O)N[C@@H](C)C(=O)N2C1` [Compound 5, (S)—N-((2R,6S,8aS,14aS,20S,23aS)-2,6-Dimethyl-5,8,14,19,23-Pentaoxooctadecahydro-1H,5H,14H,19H-Pyrido[2,1-1]Dipyrrolo[2,1-C:2′,1′-L][1]Oxa[4,7,10,13]Tetraazacyclohexadecin-20-Yl)-2-(3-(4-(Dimethylamino)Phenyl)Ureido)-3-Phenylpropanamide] the EC50 (Sa-ClpP; [2]) was 1.5 µM, the IC50 at 72 h [1, 3] was 91.3 ± 12.7 µM and the MIC (S. pyogenes ATCC 700294) was 0.78 µM (≈ 0.614 µg/mL). For the same compound, the MIC (B. subtilis ATCC 23857) was 0.78 µM (≈ 0.614 µg/mL) and the MIC (S. aureus ATCC 29213) was 6.25 µM (≈ 4.92 µg/mL).
In the case of `Cc1ccc(NC(=O)N[C@@H](Cc2ccccc2)C(=O)N[C@H]2COC(=O)[C@@H]3C[C@@H](C)CN3C(=O)[C@H](C)NC(=O)[C@@H]3CCCCN3C(=O)[C@@H]3CCCN3C2=O)cc1` [Compound 23, (S)—N-((2R,6S,8aS,14aS,20S,23aS)-2,6-Dimethyl-5,8,14,19,23-Pentaoxooctadecahydro-1H,5H,14H,19H-Pyrido[2,1-I]Dipyrrolo[2,1-C:2′,1′-L][1]Oxa[4,7,10,13]Tetraazacyclohexadecin-20-Yl)-3-Phenyl-2-(3-(P-Tolyl)Ureido)Propanamide], the EC50 (Sa-ClpP; [2]) is reported as 0.5 µM, the IC50 at 72 h [1, 3] is reported as 74 ± 7.7 µM and the MIC (S. pyogenes ATCC 700294) is reported as less than 0.2 µM. The MIC (B. subtilis ATCC 23857) was less than 0.2 µM and the MIC (S. aureus ATCC 29213) was 0.4 µM (≈ 0.303 µg/mL).
`CCCC/C=C/C(=O)N[C@@H](Cc1cc(F)cc(F)c1)C(=O)N[C@@H]1C(=O)N2CCC[C@H]2C(=O)N2CCCC[C@H]2C(=O)N[C@@H](C)C(=O)N2CCC[C@H]2C(=O)O[C@H]1C` [ADEP 2719, reference compound] ({Heptenoyl(2E)}-[Phe(3,5-F2)][aThr]P[Pip]AP; ester 2-C) showed an EC50 (Sa-ClpP; [2]) of 0.38 ± 0.01 µM and an IC50 at 72 h [1, 3] of 37.7 ± 3.4 µM.
In the case of `C[C@@H]1NC(=O)[C@@H]2CCCCN2C(=O)[C@@H]2CCCN2C(=O)[C@@H](NC(=O)[C@H](Cc2cc(F)cc(F)c2)NC(=O)Nc2ccc3c(c2)OCO3)[C@H](C)OC(=O)[C@@H]2CCCN2C1=O` [Compound 17, (S)-2-(3-(Benzo[D][1,3]Dioxol-5-Yl)Ureido)-3-(3,5-Difluorophenyl)-N-((6S,8aS,14aS,20S,21 S,23aS)-6,21-Dimethyl-5,8,14,19,23-Pentaoxooctadecahydro-1H,5H,14H,19H-Pyrido[2,1-I]Dipyrrolo[2,1-C:2′,1′-L][1]Oxa[4,7,10,13]Tetraazacyclohexadecin-20-Yl)Propanamide], the EC50 (Sa-ClpP) is reported as 0.72 µM and the IC50 at 72 h [1] is reported as 46.5 ± 9.8 µM.
For `C[C@H]1C[C@H]2C(=O)O[C@@H](C)[C@H](NC(=O)[C@H](Cc3cc(F)cc(F)c3)NC(=O)Nc3ccc4c(c3)OCO4)C(=O)N3CCC[C@H]3C(=O)N3CCCC[C@H]3C(=O)N[C@@H](C)C(=O)N2C1` [Compound 20, (S)-2-(3-(Benzo[D][1,3]Dioxol-5-Yl)Ureido)-3-(3,5-Difluorophenyl)-N-((2R,6S,8aS,14aS,20S,21 S,23aS)-2,6,21-Trimethyl-5,8,14,19,23-Pentaoxooctadecahydro-1H,5H,14H,19H-Pyrido[2,1-I]Dipyrrolo[2,1-C:2′,1′-L][1]Oxa[4,7,10,13]Tetraazacyclohexadecin-20-Yl)Propanamide], the EC50 (Sa-ClpP) was 0.36 µM and the IC50 at 72 h [1] was 52.8 ± 4.9 µM.
With `Cc1ccc(NC(=O)N[C@@H](Cc2cc(F)cc(F)c2)C(=O)N[C@H]2COC(=O)[C@@H]3C[C@@H](C)CN3C(=O)[C@H](C)NC(=O)[C@@H]3CCCCN3C(=O)[C@@H]3CCCN3C2=O)cc1` [Compound 24, (S)-3-(3,5-Difluorophenyl)-N-((2R,6S,8aS,14aS,20S,23aS)-2,6-Dimethyl-5,8,14,19,23-Pentaoxooctadecahydro-1H,5H,14H,19H-Pyrido[2,1-I]Dipyrrolo[2,1-C:2′,1′-L][1]Oxa[4,7,10,13]Tetraazacyclohexadecin-20-Yl)-2-(3-(P-Tolyl)Ureido)Propanamide] the EC50 (Sa-ClpP; [2]) was 0.4 µM, the IC50 at 72 h [1, 3] was 93.8 ± 4.8 µM and the MIC (S. pyogenes ATCC 700294) was 0.5 µM (≈ 0.397 µg/mL). It also gave an MIC (B. subtilis ATCC 23857) of 2.2 µM (≈ 1.75 µg/mL) and an MIC (S. aureus ATCC 29213) of 0.5 µM (≈ 0.397 µg/mL).
